Measurements as given in paper PMC7836013, “Characterization of Formononetin Sulfonation in SULT1A3 Overexpressing HKE293 Cells: Involvement of Multidrug Resistance-Associated Protein 4 in Excretion of Sulfate” (Frontiers in Pharmacology, 2021).
Counter-ions that a name gives are not always drawn. Each block holds one molecule with its values, some of them ahead of it.

How the values were obtained:
MRP4 [1] = molecular target: T1, MRP4 (Homo sapiens, UniProt O15439); assay: Effect of shRNA-mediated MRP4 knockdown on formononetin disposition in HEK-SULT1A3 cells; assay type: cell-based; details: shMRP4 vs scramble, formononetin 2.5 and 10 μM
T1 construct: MRP4 was the only expressed MRPs family transporter in HEK-SULT1A3 cells; endogenous in cells; host or cells: HEK-SULT1A3 cells (HEK293 stably expressing SULT1A3)
T1 sequence (O15439 1-1325): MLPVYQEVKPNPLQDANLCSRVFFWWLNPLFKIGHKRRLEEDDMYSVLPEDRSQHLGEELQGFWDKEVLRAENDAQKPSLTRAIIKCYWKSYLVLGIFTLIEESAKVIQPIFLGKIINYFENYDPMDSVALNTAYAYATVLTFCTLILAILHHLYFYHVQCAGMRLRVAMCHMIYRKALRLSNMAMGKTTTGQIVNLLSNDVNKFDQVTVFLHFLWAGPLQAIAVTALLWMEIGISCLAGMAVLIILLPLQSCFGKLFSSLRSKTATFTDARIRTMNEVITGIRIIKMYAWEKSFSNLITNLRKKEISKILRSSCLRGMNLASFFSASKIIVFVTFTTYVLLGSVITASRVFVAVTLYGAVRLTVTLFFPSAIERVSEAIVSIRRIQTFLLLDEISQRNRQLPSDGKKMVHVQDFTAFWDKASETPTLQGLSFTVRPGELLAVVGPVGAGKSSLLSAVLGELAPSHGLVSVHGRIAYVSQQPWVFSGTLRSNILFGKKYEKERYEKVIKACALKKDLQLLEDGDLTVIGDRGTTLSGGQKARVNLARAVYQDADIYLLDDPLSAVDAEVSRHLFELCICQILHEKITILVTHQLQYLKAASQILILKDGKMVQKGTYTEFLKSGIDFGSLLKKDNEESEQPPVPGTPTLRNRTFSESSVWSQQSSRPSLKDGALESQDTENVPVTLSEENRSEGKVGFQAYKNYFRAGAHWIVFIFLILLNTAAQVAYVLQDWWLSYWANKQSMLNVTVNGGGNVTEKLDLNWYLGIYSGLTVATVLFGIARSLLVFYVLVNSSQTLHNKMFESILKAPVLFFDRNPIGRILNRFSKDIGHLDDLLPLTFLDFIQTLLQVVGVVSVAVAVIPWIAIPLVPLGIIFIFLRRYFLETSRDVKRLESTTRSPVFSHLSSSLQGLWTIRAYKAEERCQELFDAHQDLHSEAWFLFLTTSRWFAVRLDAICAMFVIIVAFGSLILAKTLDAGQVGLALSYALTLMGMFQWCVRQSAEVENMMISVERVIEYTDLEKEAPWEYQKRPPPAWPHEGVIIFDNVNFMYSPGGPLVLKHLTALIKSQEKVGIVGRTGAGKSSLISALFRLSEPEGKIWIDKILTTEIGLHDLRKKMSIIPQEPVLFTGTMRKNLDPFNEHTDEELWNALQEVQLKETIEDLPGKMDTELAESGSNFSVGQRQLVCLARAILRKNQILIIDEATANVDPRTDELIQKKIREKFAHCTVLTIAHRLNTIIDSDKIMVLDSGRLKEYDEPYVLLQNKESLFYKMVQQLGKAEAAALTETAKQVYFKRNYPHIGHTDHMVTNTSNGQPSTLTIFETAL
Method: The sulfate excretion experiments were conducted using HEK-SULT1A3 cells model. In brief, HEK-SULT1A3 cells were washed with Hank's Balanced Salt Solution (HBSS) buffer (37°C, pH = 7.2) for three times. Then the cells were incubated with 2 ml HBSS buffer containing different concentrations of formononetin (final concentrations of 2.5 μM or 10 μM) at 37°C. 200 μL of incubation medium was sampled from each well at various times (0.5, 1.0, 1.5, and 2.0 h). Meanwhile, 200 μL of dosing solution was added immediately. The extracted samples were mixed with 100 μL ice-cold acetonitrile and vortexed for 1 min. The supernatant after centrifugation (15,000 g; 15 min) was injected into HPLC for analysis. After the last samples were taken, cells were collected into 400 μL ice-cold MeOH:H2O (1:1, v/v) and processed to measure the intracellular amount of formononetin sulfate. The excretion rate (ER) of intracellular sulfate was calculated exactly as described in our publications (Liu et al., 2018). The apparent efflux clearance (CLef,app) was derived as the excretion rate divided by the intracellular concentration of sulfate (Ci). Ci was determined by dividing intracellular amount of sulfate at 2 h by intracellular volume. The intracellular volume of HEK293 cells was measured using sulfanilamide as described ([Zhou et al., 2015]). […] Further, the fraction of dose metabolized (fmet), an indicator of the extent of drug sulfonation, was calculated according to Eq. 2. fmet=excreted sulfate+intracellular sulfate/total dosed aglycone (2) The cells were collected and lysed in RIPA Lysis Buffer (Beyotime, Shanghai) in advance. After quantified using BCA protein assay kit (Thermo Scientific, Waltham, Massachusetts), the cells samples or individual human intestine S9 fractions were analyzed by sodium dodecyl sulfate polyacrylamide gel electrophoresis (10% acrylamide gels) and transferred to polyvinylidene fluoride membranes ([…], Millipore, Bedford, MA). […] And then the protein bands were scanned in grayscale and subjected to semiquantitative analysis using Quantity One software.

HEK-SULT1A3 cell lysate [2] = molecular target: T2, HEK-SULT1A3 cell lysate (Homo sapiens, UniProt P0DMM9); assay: Effect of chemical inhibitors on formononetin sulfonation in HEK-SULT1A3 cell lysate; assay type: in vitro ADME; details: inhibitor 5–20 μM, formononetin 2.5 and 10 μM, p > 0.05
T2 construct: expressed in transfected cells; cell lysate used

MRP4 [3] = molecular target: T1, MRP4; assay: Effect of MK-571 on formononetin sulfate excretion in HEK-SULT1A3 cells; assay type: cell-based
Method: The sulfate excretion experiments were conducted using HEK-SULT1A3 cells model. In brief, HEK-SULT1A3 cells were washed with Hank's Balanced Salt Solution (HBSS) buffer (37°C, pH = 7.2) for three times. Then the cells were incubated with 2 ml HBSS buffer containing different concentrations of formononetin (final concentrations of 2.5 μM or 10 μM) at 37°C. 200 μL of incubation medium was sampled from each well at various times (0.5, 1.0, 1.5, and 2.0 h). Meanwhile, 200 μL of dosing solution was added immediately. The extracted samples were mixed with 100 μL ice-cold acetonitrile and vortexed for 1 min. The supernatant after centrifugation (15,000 g; 15 min) was injected into HPLC for analysis. After the last samples were taken, cells were collected into 400 μL ice-cold MeOH:H2O (1:1, v/v) and processed to measure the intracellular amount of formononetin sulfate. The excretion rate (ER) of intracellular sulfate was calculated exactly as described in our publications (Liu et al., 2018). The apparent efflux clearance (CLef,app) was derived as the excretion rate divided by the intracellular concentration of sulfate (Ci). Ci was determined by dividing intracellular amount of sulfate at 2 h by intracellular volume. The intracellular volume of HEK293 cells was measured using sulfanilamide as described ([Zhou et al., 2015]).

HEK-SULT1A3 cell lysate [4] = molecular target: T2, HEK-SULT1A3 cell lysate; assay: Formononetin sulfonation enzyme kinetics in HEK-SULT1A3 cell lysate; assay type: in vitro ADME; details: Michaelis-Menten, mean ± SD (n = 3)
Method: Enzyme kinetic of formononetin incubated with recombinant human SULT1A3 enzyme (rSULT1A3) was evaluated. The reaction was activated after the coenzyme PAPS (which provides sulfonate group to the substrates) was added. The incubation reaction was conducted in 200 μL potassium phosphate buffer (50 mM, pH 7.4) at 37°C, containing SULT1A3 enzyme (0.1 mg/ml), formononetin (0.16–40 μM), and PAPS (a final concentration of 0.10 mM). After incubation for 120 min, the reaction was terminated by adding 100 μL ice-cold acetonitrile. Then the samples were vortexed and centrifuged at 15,000 g for 15 min. The supernatant was analyzed by HPLC for sulfate quantification. All incubations were performed in triplicate. Preliminary experiments were performed to ensure that the rates of sulfation were determined under linear conditions with respect to incubation time and protein concentration.
The sulfonation rates of formononetin at different concentrations were determined according to the sulfonation assay protocol. […] The intrinsic clearance (CLint) was calculated by Vmax/Km.
Quantification of formononetin sulfate was performed using Agilent 1,260 Infinity II HPLC system with a ZORBAX SB-C18 column (4.6 × 250 mm, 5 μm; Agilent). […] The samples were analyzed using a gradient of ammonium acetate (2.5 mM) in water (mobile phase A) vs. acetonitrile (mobile phase B) at a flow rate of 1.0 ml/min. […]

[5] = design: method as in Singh and Wahajuddin, 2011; details: ref Singh and Wahajuddin, 2011; cited from earlier work
[6] = MK-571 5–20 μM, formononetin 2.5 μM, p < 0.001
[7] = MK-571 5–20 μM, formononetin 10 μM, p < 0.001

T2 sequence (P0DMM9 whole entry): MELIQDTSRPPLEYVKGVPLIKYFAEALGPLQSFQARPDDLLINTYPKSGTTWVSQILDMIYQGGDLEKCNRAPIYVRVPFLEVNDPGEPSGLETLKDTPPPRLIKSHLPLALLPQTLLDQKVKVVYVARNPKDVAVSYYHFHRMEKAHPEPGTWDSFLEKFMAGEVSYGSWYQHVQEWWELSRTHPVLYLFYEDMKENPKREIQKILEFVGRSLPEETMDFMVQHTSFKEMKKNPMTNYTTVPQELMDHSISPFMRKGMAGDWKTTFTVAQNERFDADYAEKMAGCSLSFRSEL

- Decrease in CLef,app of F-O-S on MRP4 knockdown (MRP4 [1]; p < 0.01): > 50.6%
- Reduction in sulfate excretion rates on MRP4 knockdown (MRP4 [1]; p < 0.01): > 32.8%
- Elevation in intracellular amounts of F-O-S on MRP4 knockdown (MRP4 [1]; p < 0.05): > 127.4%
Structure (SMILES): COc1ccc(-c2coc3cc(OS(=O)(=O)O)ccc3c2=O)cc1 [F-O-S, formononetin sulfate]

- Effect of inhibitor on formononetin sulfonation (generation of F-O-S) (HEK-SULT1A3 cell lysate [2]): did not alter
- Decrease of CLef,app of F-O-S (MRP4 [3]; [6]): 85.3%–98.0%
- Reduction in excretion of F-O-S (MRP4 [3]; [6]): 79.1%–94.6%
- Decrease of excretion rates of F-O-S (MRP4 [3]; [7]): 79.8%–95.7%
- Increase of intracellular level of F-O-S (MRP4 [3]; [7]): 160.6%–188.8%
- Reduction of CLef,app of F-O-S (MRP4 [3]; [7]): 87.3%–97.7%
- Suppression of excretion of formononetin sulfate (MRP4 [3]; MK-571 at 20 μM): > 94%
Structure (SMILES): CN(C)C(=O)CCSC(SCCC(=O)O)c1cccc(/C=C/c2ccc3ccc(Cl)cc3n2)c1 (stereo not drawn) [MK-571]

- Vmax of formononetin sulfonation (HEK-SULT1A3 cell lysate [4]): 13.94 ± 0.83 pmol/min/mg
Structure (SMILES): COc1ccc(-c2coc3cc(O)ccc3c2=O)cc1 [formononetin, Formononetin]
- Bioavailability of unchanged formononetin [5]: approximately 3%
